The source of these data is ChEMBL document CHEMBL3244122, “Symbiotic approach to drug design: antihypertensive beta-adrenergic blocking agents” (J Med Chem, 1979).

As usually defined, the ED50 is the midpoint of the dose-response relation.

Structures are written as SMILES.

The subject of one data set is Oryctolagus cuniculus. The data set is described as follows: Toxicity in rabbit assessed as teratogenicity measured after high drug dose administration. To be noted: in vivo. Type of data set: organism-based.
Data set [1] deals with Rattus norvegicus. The data set is described as follows: Antihypertensive activity in po dosed spontaneously hypertensive Wistar-Okamoto rat assessed as maximal fall in mean arterial pressure. The format is functional, organism-based. To be noted: Artery.
Data set [2] concerns Rattus norvegicus. Put plainly: Antihypertensive activity in spontaneously hypertensive Wistar-Okamoto rat assessed as maximal fall in mean arterial pressure at 20 mg/kg, ip. The format is functional, Artery. To be noted: route intraperitoneal.
In data set [3] the test system is Canis familiaris. The data set is described as follows: In vivo beta-adrenergic receptor blockade in iv dosed anesthetized dog assessed as inhibition of isoproterenol-induced hypotension. Type of data set: functional. To be noted: Canis lupus familiaris.
Data set [4] has as its system Canis familiaris. The data set is described as follows: In vivo beta-adrenergic receptor blockade in iv dosed anesthetized dog assessed as inhibition of isoproterenol-induced tachycardia. The format is functional. To be noted: Canis lupus familiaris.
Data set [5] concerns Rattus norvegicus. Put plainly: Antihypertensive activity in spontaneously hypertensive Wistar-Okamoto rat assessed as maximal fall in mean arterial pressure at 20 mg/kg, po. Type of data set: functional, Artery.
The subject of data set [6] is Canis familiaris. The data set is described as follows: Vasodilatory activity in anesthetized dog assessed as increase in iliac blood flow […] ia. Type of data set: functional, Canis lupus familiaris, Artery.
Data set [7] relates to Rattus norvegicus. Put plainly: Antihypertensive activity in spontaneously hypertensive Wistar-Okamoto rat assessed as duration of action at 20 mg/kg, ip. Type of data set: functional. To be noted: route intraperitoneal.
Data set [8] deals with Rattus norvegicus. Put plainly: Antihypertensive activity in spontaneously hypertensive Wistar-Okamoto rat assessed as duration of action at 5 mg/kg, ip. The format is functional. To be noted: route intraperitoneal.
For data set [9], the system named is Rattus norvegicus. Put plainly: Antihypertensive activity in spontaneously hypertensive Wistar-Okamoto rat assessed as maximal fall in mean arterial pressure at 5 mg/kg, ip. Type of data set: functional, Artery. To be noted: route intraperitoneal.
For data set [10], the system named is Rattus norvegicus. Put plainly: Antihypertensive activity in spontaneously hypertensive Wistar-Okamoto rat assessed as duration of action at 20 mg/kg, po. The format is functional.
The test system of data set [11] is Canis familiaris. Put plainly: Vasodilatory activity in anesthetized dog assessed as increase in iliac blood flow […] measured after 2000 ug/kg, iv beta-adrenergic receptor blocker timolol administration. The format is functional, Canis lupus familiaris, Artery.

As to `CC(C)(C)NCC(O)COc1ncccc1C#N` (configuration not stated), the Activity result in the data set on Oryctolagus cuniculus was “Toxic”. The inhibition result with Rattus norvegicus [1] was “Dose-dependent effect”.

Consider `CC(C)NCC(O)COc1ncccc1C#N` (configuration not stated), for which the Activity came to 59 mmHg with Rattus norvegicus [2]; 40 mmHg with Rattus norvegicus [5]; 59 mL/min in the data set on Canis familiaris [6]; 26 mmHg with Rattus norvegicus [9]; 48 mL/min in the data set on Canis familiaris [11]. The median effective dose (ED50) is 0.03 mg/kg in the data set on Canis familiaris [3] and 0.005 mg/kg in the data set with Canis familiaris [4]. Also, the Time in the data set with Rattus norvegicus [7] amounted to 8 h; with Rattus norvegicus [8] it was 2 h; in the data set with Rattus norvegicus [10], 4 h.
